Experimental data as given in US20120238549A1, “Nuclear Hormone Receptor Modulators” (ABBOTT LABORATORIES, priority 2011, published 2012).

target: T1, Glucocorticoid Receptor (GR) (Homo sapiens, UniProt P04150); experiment: GR Florescence Polarization Assay (PolarScreen Glucocorticoid Receptor Competitor Assay, Red); conditions: Fluorescense polarization binding ranges; competition with fluorescent glucocorticoid, incubated overnight at 4° C.
T1 construct: purchased Invitrogen P2893
T1 sequence (P04150 1-777): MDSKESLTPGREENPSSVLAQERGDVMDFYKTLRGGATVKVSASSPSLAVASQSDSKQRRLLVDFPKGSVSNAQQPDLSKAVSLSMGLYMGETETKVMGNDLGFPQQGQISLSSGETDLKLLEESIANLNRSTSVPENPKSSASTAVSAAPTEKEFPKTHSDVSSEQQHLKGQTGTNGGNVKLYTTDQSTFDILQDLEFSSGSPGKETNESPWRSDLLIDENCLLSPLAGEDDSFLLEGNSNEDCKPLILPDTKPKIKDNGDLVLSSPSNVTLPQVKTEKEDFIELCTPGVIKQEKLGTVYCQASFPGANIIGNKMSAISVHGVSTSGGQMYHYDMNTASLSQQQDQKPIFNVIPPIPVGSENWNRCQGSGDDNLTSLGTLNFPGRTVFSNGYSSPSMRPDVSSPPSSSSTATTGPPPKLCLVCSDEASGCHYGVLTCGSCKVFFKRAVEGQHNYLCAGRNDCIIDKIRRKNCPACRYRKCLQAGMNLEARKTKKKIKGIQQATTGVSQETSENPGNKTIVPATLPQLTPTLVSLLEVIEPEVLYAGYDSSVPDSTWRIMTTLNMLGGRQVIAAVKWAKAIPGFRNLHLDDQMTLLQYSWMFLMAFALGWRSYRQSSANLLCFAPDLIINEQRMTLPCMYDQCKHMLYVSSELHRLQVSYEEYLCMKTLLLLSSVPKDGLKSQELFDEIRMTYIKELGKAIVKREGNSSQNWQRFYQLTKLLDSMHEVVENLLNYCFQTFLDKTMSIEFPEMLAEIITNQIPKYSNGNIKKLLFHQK
How it was run: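 Competitive fluorescence polarization using fluorescent glucocorticoid tracer and human GR in kit buffer. Compounds serially diluted 1:4 in DMSO, incubated with tracer and GR overnight at 4 °C before polarization read.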

| IC50 [nM] | SMILES |
| --- | --- |
| < 100 | Cc1ncccc1NC(=O)c1ccc2c(c1)CCC[C@H]1C[C@@](O)(CC#N)CC[C@@]21Cc1ccccc1 (racemic) [Example 65] |
| < 100 | CC[C@@]1(O)CC[C@@]2(Cc3ccccc3)c3ccc(C(=O)Nc4ccc(C)nc4C)cc3CCC[C@H]2C1 [Example 72] |
| 100 to 1000 | CC[C@]12CC[C@@](O)(c3ccccc3)C[C@H]1CCCc1cc(C(=O)Nc3cccnc3C)ccc12 (single isomer, unassigned) [Example 123] |
| 100 to 1000 | CC[C@@]12C[C@@H](O)[C@](O)(c3ccccc3)C[C@@H]1CCOc1cc(C(=O)Nc3cccnc3C)ccc12 (racemic) [Example 135, (7aS,9R,10R,11aR)-11a-Ethyl-9,10-dihydroxy-N-(2-methylpyridin-3-yl)-9-phenyl-6,7,7a,8,9,10,11,11a-octahydrodibenzo[b,d]oxepine-3-carboxamide; compound with (7aR,9S,10S,11aS)-11a-ethyl-9,10-dihydroxy-N-(2-methylpyridin-3-yl)-9-phenyl-6,7,7a,8,9,10,11,11a-octahydrodibenzo[b,d]oxepine-3-carboxamide] |
| 100 to 1000 | Cc1ncccc1NC(=O)c1ccc2c(c1)CCC[C@H]1C[C@@H](O)CC[C@@]21Cc1ccccc1 (racemic) [Example 16, (7aS,9S,11aS)-11a-Benzyl-9-hydroxy-6,7,7a,8,9,10,11,11a-octahydro-5H-dibenzo[a,c]cycloheptene-3-carboxylic acid (2-methyl-pyridin-3-yl)-amide; compound with (7aR,9R,11aR)-11a-benzyl-9-hydroxy-6,7,7a,8,9,10,11,11a-octahydro-5H-dibenzo[a,c]cycloheptene-3-carboxylic acid (2-methyl-pyridin-3-yl)-amide] |
| < 100 | CC[C@@]1(O)CC[C@@]2(Cc3ccccc3)c3ccc(C(=O)Nc4cccnc4C)cc3CC(=O)C[C@H]2C1 [Example 114, (7aR,9R,11aS)-11a-Benzyl-9-ethyl-9-hydroxy-6-oxo-6,7,7a,8,9,10,11,11a-octahydro-5H-dibenzo[a,c]cycloheptene-3-carboxylic acid (2-methyl-pyridin-3-yl)-amide] |
| < 100 | CCC[C@@]1(O)CC[C@@]2(CC)c3ccc(C(=O)Nc4cccnc4N)cc3CCC[C@H]2C1 (racemic) [Example 149, (7aS,9R,11aR)-11a-Ethyl-9-hydroxy-9-propyl-6,7,7a,8,9,10,11,11a-octahydro-5H-dibenzo[a,c]cycloheptene-3-carboxylic acid (2-amino-pyridin-3-yl)-amide; compound with (7aR,9S,11aS)-11a-ethyl-9-hydroxy-9-propyl-6,7,7a,8,9,10,11,11a-octahydro-5H-dibenzo[a,c]cycloheptene-3-carboxylic acid(2-amino-pyridin-3-yl)-amide] |
| < 100 | CCOC[C@@]1(O)CC[C@@]2(Cc3ccccc3)c3ccc(C(=O)Nc4cccnc4C)cc3CCC[C@H]2C1 (racemic) [Example 33, (7aS,9R,11aS)-11a-Benzyl-9-ethoxymethyl-9-hydroxy-6,7,7a,8,9,10,11,11a-octahydro-5H-dibenzo[a,c]cycloheptene-3-carboxylic acid (2-methyl-pyridin-3-yl)-amide; compound with (7aR,9S,11aR)-11a-benzyl-9-ethoxymethyl-9-hydroxy-6,7,7a,8,9,10,11,11a-octahydro-5H-dibenzo[a,c]cycloheptene-3-carboxylic acid (2-methyl-pyridin-3-yl)-amide] |
| 100 to 1000 | Cc1ncccc1NC(=O)c1ccc2c(c1)CCC[C@H]1C[C@@](O)(c3ccccc3)[C@H](O)C[C@@]21Cc1ccccc1 [Example 43, (7aS,9R,10R,11aR)-11a-Benzyl-9,10-dihydroxy-9-phenyl-6,7,7a,8,9,10,11,11a-octahydro-5H-dibenzo[a,c]cycloheptene-3-carboxylic acid (2-methyl-pyridin-3-yl)-amide; compound with (7aR,9S,10S,11aS)-11a-benzyl-9,10-dihydroxy-9-phenyl-6,7,7a,8,9,10,11,11a-octahydro-5H-dibenzo[a,c]cycloheptene-3-carboxylic acid (2-methyl-pyridin-3-yl)-amide] |
| < 100 | CC[C@@]12CC[C@](O)(c3ccccc3)C[C@@H]1CCCc1cc(C(=O)Nc3cccnc3C)ccc12 (single isomer, unassigned) [Example 122] |
| < 100 | CC[C@@]1(O)CC[C@@]2(Cc3ccccc3)c3ccc(C(=O)Nc4cccnc4C)cc3COC[C@H]2C1 [Example 111, (7aS,9R,11aS)-11a-Benzyl-9-ethyl-9-hydroxy-N-(2-methylpyridin-3-yl)-5,7,7a,8,9,10,11,11a-octahydrodibenzo[c,e]oxepine-3-carboxamide] |

The remaining lines, values behind:

| SMILES | IC50 [nM] |
| --- | --- |
| CCC[C@@]12CC[C@@](O)(CC)C[C@@H]1CCCc1cc(C(=O)Nc3cccnc3C)ccc12.CCC[C@]12CC[C@](O)(CC)C[C@H]1CCCc1cc(C(=O)Nc3cccnc3C)ccc12 [Example 27, (7aR,9R,11aS)-9-ethyl-9-hydroxy-11a-propyl-6,7,7a,8,9,10,11,11a-octahydro-5H-dibenzo[a,c]cycloheptene-3-carboxylic acid (2-methyl-pyridin-3-yl)-amide; compound with (7aS,9S,11aR)-9-ethyl-9-hydroxy-11a-propyl-6,7,7a,8,9,10,11,11a-octahydro-5H-dibenzo[a,c]cycloheptene-3-carboxylic acid (2-methyl-pyridin-3-yl)-amide] | 1000 to 10000 |
| CC[C@@]1(O)CC[C@@]2(Cc3ccccc3)c3c(cnn3C)CCC[C@H]2C1.CC[C@]1(O)CC[C@]2(Cc3ccccc3)c3c(cnn3C)CCC[C@@H]2C1 [Example 38, (6aS,8R,10aS)-10a-Benzyl-8-ethyl-1-methyl-1,4,5,6,6a,7,8,9,10,10a-decahydro-1,2-diaza-benzo[e]azulen-8-ol; compound with (6aR,8S,10aR)-10a-benzyl-8-ethyl-1-methyl-1,4,5,6,6a,7,8,9,10,10a-decahydro-1,2-diaza-benzo[e]azulen-8-ol] | 1000 to 10000 |
| Cc1ncccc1NC(=O)c1ccc2c(c1)COC[C@@H]1C[C@@](O)(C(F)(F)F)CC[C@@]21Cc1ccccc1 [Example 116, (7aR,9R,11aS)-11a-Benzyl-9-hydroxy-N-(2-methylpyridin-3-yl)-9-(trifluoromethyl)-5,7,7a,8,9,10,11,11a-octahydrodibenzo[c,e]oxepine-3-carboxamide] | 100 to 1000 |
| COc1ccc2c(c1)CCCC1=CC(=O)CCC12Cc1ccccc1 (stereo not drawn) [Example 1, 11b-Benzyl-9-methoxy-1,2,5,6,7,11b-hexahydro-dibenzo[a,c]cyclohepten-3-one] | 100 to 1000 |
| CCC[C@]1(O)CC[C@]2(CC)c3ccc(C(=O)Nc4cccnc4C)cc3OCC[C@@H]2C1 (single isomer, unassigned) [Example 120] | 100 to 1000 |
| Cc1ncccc1NC(=O)c1ccc2c(c1)CCC[C@@H]1C[C@](C)(O)CC[C@@]21Cc1ccccc1.Cc1ncccc1NC(=O)c1ccc2c(c1)CCC[C@H]1C[C@@](C)(O)CC[C@]21Cc1ccccc1 [Example 9, (7aR,9R,11aS)-11a-Benzyl-9-hydroxy-9-methyl-6,7,7a,8,9,10,11,11a-octahydro-5H-dibenzo[a,c]cycloheptene-3-carboxylic acid (2-methyl-pyridin-3-yl)-amide; compound with (7aS,9S,11aR)-11a-benzyl-9-hydroxy-9-methyl-6,7,7a,8,9,10,11,11a-octahydro-5H-dibenzo[a,c]cycloheptene-3-carboxylic acid (2-methyl-pyridin-3-yl)-amide] | < 100 |
| O=C1CC[C@@]2(Cc3ccccc3)c3ccc(O)cc3CCC[C@H]2C1.O=C1CC[C@]2(Cc3ccccc3)c3ccc(O)cc3CCC[C@@H]2C1 [Example 4, (4aS,11bS)-11b-Benzyl-9-hydroxy-1,2,4,4a,5,6,7,11b-octahydro-dibenzo[a,c]cyclohepten-3-one; compound with (4aR,11bR)-11b-benzyl-9-hydroxy-1,2,4,4a,5,6,7,11b-octahydro-dibenzo[a,c]cyclohepten-3-one] | 100 to 1000 |
| Oc1ccc2c(c1)CCC[C@H]1C[C@@](O)(c3ccccc3)[C@H](O)C[C@@]21Cc1ccccc1 (racemic) [Example 42, (2R,3R,4aS,11bR)-11b-Benzyl-3-phenyl-2,3,4,4a,5,6,7,11b-octahydro-1H-dibenzo[a,c]cycloheptene-2,3,9-triol compound with (2S,3S,4aR,11bS)-11b-benzyl-3-phenyl-2,3,4,4a,5,6,7,11b-octahydro-1H-dibenzo[a,c]cycloheptene-2,3,9-triol] | 100 to 1000 |
| CCC[C@]1(O)CC[C@]2(CC)c3ccc(C(=O)Nc4cccnc4C)cc3C=CC[C@@H]2C1 (single isomer, unassigned) [Example 130] | < 100 |
| CC[C@@]1(O)CC[C@@]2(Cc3ccccc3)c3ccc(C(=O)Nc4nncs4)cc3CCC[C@H]2C1 [Example 74] | 100 to 1000 |
